Target: Aβ42 (Homo sapiens, UniProt P05067)
Test: Th-T (thioflavin-T) assay of Aβ42 aggregation
Type: biochemical
Details: for Th-T fluorescence, mean of three wells: compound at 50

Chain of Aβ42 (P05067 672-713): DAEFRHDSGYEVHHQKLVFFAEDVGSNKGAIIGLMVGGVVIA

C=C1CCC2C(C)(CCC=C(C)C)C(O)CCC2(C)C1Cc1c(OC)oc(CO)c(C)c1=O (stereo not drawn) [Compound 12]
Th-T fluorescence, mean of three wells (reading M54 of time course): 1.475
Th-T fluorescence, mean of three wells (reading M55 of time course): 1.456
Th-T fluorescence, mean of three wells (reading M56 of time course): 1.467
Th-T fluorescence, mean of three wells (reading M57 of time course): 1.475
Th-T fluorescence, mean of three wells (reading M58 of time course): 1.462
Th-T fluorescence, mean of three wells (reading M59 of time course): 1.454
Th-T fluorescence, mean of three wells (reading M60 of time course): 1.444
Th-T fluorescence, mean of three wells (reading M61 of time course): 1.462
Th-T fluorescence, mean of three wells (reading M62 of time course): 1.445
Th-T fluorescence of Aβ42 with compound, mean of three wells (Fig. 7a source data) (concentration 10, unit not given, time-course reading M129): 2.41
Th-T fluorescence of Aβ42 with compound, mean of three wells (Fig. 7a source data) (concentration 10, unit not given, time-course reading M130): 2.392
Th-T fluorescence of Aβ42 with compound, mean of three wells (Fig. 7a source data) (concentration 10, unit not given, time-course reading M131): 2.376
Th-T fluorescence of Aβ42 with compound, mean of three wells (Fig. 7a source data) (concentration 10, unit not given, time-course reading M132): 2.3677
Th-T fluorescence of Aβ42 with compound, mean of three wells (Fig. 7a source data) (concentration 10, unit not given, time-course reading M133): 2.357
Th-T fluorescence of Aβ42 with compound, mean of three wells (Fig. 7a source data) (concentration 10, unit not given, time-course reading M134): 2.346
Th-T fluorescence of Aβ42 with compound, mean of three wells (Fig. 7a source data) (concentration 10, unit not given, time-course reading M135): 2.32
Th-T fluorescence of Aβ42 with compound, mean of three wells (Fig. 7a source data) (concentration 10, unit not given, time-course reading M136): 2.323
Th-T fluorescence of Aβ42 with compound, mean of three wells (Fig. 7a source data) (concentration 10, unit not given, time-course reading M137): 2.294
Th-T fluorescence of Aβ42 with compound, mean of three wells (Fig. 7a source data) (concentration 10, unit not given, time-course reading M138): 2.29
Th-T fluorescence of Aβ42 with compound, mean of three wells (Fig. 7a source data) (concentration 10, unit not given, time-course reading M139): 2.265
Th-T fluorescence of Aβ42 with compound, mean of three wells (Fig. 7a source data) (concentration 10, unit not given, time-course reading M140): 2.265
Th-T fluorescence of Aβ42 with compound, mean of three wells (Fig. 7a source data) (concentration 10, unit not given, time-course reading M141): 2.2429
Th-T fluorescence of Aβ42 with compound, mean of three wells (Fig. 7a source data) (concentration 10, unit not given, time-course reading M142): 2.235
Th-T fluorescence of Aβ42 with compound, mean of three wells (Fig. 7a source data) (concentration 10, unit not given, time-course reading M143): 2.219
Th-T fluorescence of Aβ42 with compound, mean of three wells (Fig. 7a source data) (concentration 10, unit not given, time-course reading M144): 2.211
Th-T fluorescence of Aβ42 with compound, mean of three wells (Fig. 7a source data) (concentration 10, unit not given, time-course reading M145): 2.191
Th-T fluorescence of Aβ42 with compound, mean of three wells (Fig. 7a source data) (concentration 20, unit not given, time-course reading M129): 2.166
Th-T fluorescence of Aβ42 with compound, mean of three wells (Fig. 7a source data) (concentration 20, unit not given, time-course reading M130): 2.19
Th-T fluorescence of Aβ42 with compound, mean of three wells (Fig. 7a source data) (concentration 20, unit not given, time-course reading M131): 2.201
Th-T fluorescence of Aβ42 with compound, mean of three wells (Fig. 7a source data) (concentration 20, unit not given, time-course reading M132): 2.206
Th-T fluorescence of Aβ42 with compound, mean of three wells (Fig. 7a source data) (concentration 20, unit not given, time-course reading M133): 2.24
Th-T fluorescence of Aβ42 with compound, mean of three wells (Fig. 7a source data) (concentration 20, unit not given, time-course reading M134): 2.215
Th-T fluorescence of Aβ42 with compound, mean of three wells (Fig. 7a source data) (concentration 20, unit not given, time-course reading M135): 2.232
Th-T fluorescence of Aβ42 with compound, mean of three wells (Fig. 7a source data) (concentration 20, unit not given, time-course reading M136): 2.218
Th-T fluorescence of Aβ42 with compound, mean of three wells (Fig. 7a source data) (concentration 20, unit not given, time-course reading M137): 2.204
Th-T fluorescence of Aβ42 with compound, mean of three wells (Fig. 7a source data) (concentration 20, unit not given, time-course reading M138): 2.229
Th-T fluorescence of Aβ42 with compound, mean of three wells (Fig. 7a source data) (concentration 20, unit not given, time-course reading M139): 2.207
Th-T fluorescence of Aβ42 with compound, mean of three wells (Fig. 7a source data) (concentration 20, unit not given, time-course reading M140): 2.233
Th-T fluorescence of Aβ42 with compound, mean of three wells (Fig. 7a source data) (concentration 20, unit not given, time-course reading M141): 2.207
Th-T fluorescence of Aβ42 with compound, mean of three wells (Fig. 7a source data) (concentration 20, unit not given, time-course reading M142): 2.239
Th-T fluorescence of Aβ42 with compound, mean of three wells (Fig. 7a source data) (concentration 20, unit not given, time-course reading M143): 2.219
Th-T fluorescence of Aβ42 with compound, mean of three wells (Fig. 7a source data) (concentration 20, unit not given, time-course reading M144): 2.234
Th-T fluorescence of Aβ42 with compound, mean of three wells (Fig. 7a source data) (concentration 20, unit not given, time-course reading M145): 2.206
Th-T fluorescence of Aβ42 with compound, mean of three wells (Fig. 7a source data) (concentration 50, unit not given, time-course reading M129): 1.589
Th-T fluorescence of Aβ42 with compound, mean of three wells (Fig. 7a source data) (concentration 50, unit not given, time-course reading M130): 1.591
Th-T fluorescence of Aβ42 with compound, mean of three wells (Fig. 7a source data) (concentration 50, unit not given, time-course reading M131): 1.579
Th-T fluorescence of Aβ42 with compound, mean of three wells (Fig. 7a source data) (concentration 50, unit not given, time-course reading M132): 1.5892
Th-T fluorescence of Aβ42 with compound, mean of three wells (Fig. 7a source data) (concentration 50, unit not given, time-course reading M133): 1.602
Th-T fluorescence of Aβ42 with compound, mean of three wells (Fig. 7a source data) (concentration 50, unit not given, time-course reading M134): 1.607
Th-T fluorescence of Aβ42 with compound, mean of three wells (Fig. 7a source data) (concentration 50, unit not given, time-course reading M135): 1.608
Th-T fluorescence of Aβ42 with compound, mean of three wells (Fig. 7a source data) (concentration 50, unit not given, time-course reading M136): 1.609
Th-T fluorescence of Aβ42 with compound, mean of three wells (Fig. 7a source data) (concentration 50, unit not given, time-course reading M137): 1.626
Th-T fluorescence of Aβ42 with compound, mean of three wells (Fig. 7a source data) (concentration 50, unit not given, time-course reading M138): 1.633
Th-T fluorescence of Aβ42 with compound, mean of three wells (Fig. 7a source data) (concentration 50, unit not given, time-course reading M139): 1.6439
Th-T fluorescence of Aβ42 with compound, mean of three wells (Fig. 7a source data) (concentration 50, unit not given, time-course reading M140): 1.64
Th-T fluorescence of Aβ42 with compound, mean of three wells (Fig. 7a source data) (concentration 50, unit not given, time-course reading M141): 1.647
Th-T fluorescence of Aβ42 with compound, mean of three wells (Fig. 7a source data) (concentration 50, unit not given, time-course reading M142): 1.661
